From patent US20260327263A1, “Anti-Bacterial Peptides” (priority 2023, published 2026)
Converted amounts (≈) assume the structure as drawn. Where a SMILES comes first, the peptide text is derived from it. Where no end group is shown, it is not given here. [ ]: non-standard residue; d: D form.

What was measured:
[1] = system: human keratinocytes (HaCaT); assay: Cell proliferation assay, HaCaT keratinocytes; assay type: cell-based; details: 24 h; up to highest tested concentrations (peptide); 3% (H2O2)
Description: (§1) Wound closure was compared with the untreated samples (circle, red highlight). For improved clarity, error bars have been omitted from this representation. […] Each value is the mean±SD (n=3). Statistical significance was assessed using ANOVA for multiple comparisons (Dunnett's multiple comparisons test). **** p<0.0001, *** p<0.001, ** p<0.01, *p<0.05, ns denotes nonsignificance, p >0.05.
CyQUANT™ Direct Cell Proliferation Assay (ThermoFisher Scientific, Catalogue) was performed as per manufacturer's instructions to determine the safety of the peptides to human keratinocytes. […] The fluorescence intensity and number of stained cells were determined using the LionHeart FX Automated Microscope (BioTek, VT, USA).

[2] = system: fibroblasts (HFF-1); assay: Cell proliferation assay, HFF-1 fibroblasts; assay type: cell-based; details: 24 h; up to highest tested concentrations (peptide); 3% (H2O2)
[3] = system: Pseudomonas aeruginosa (PA); assay: Broth microdilution anti-bacterial assay (CLSI), Pseudomonas aeruginosa; assay type: cell-based, Pseudomonas aeruginosa (ATCC 14213); details: for MIC / MBC: PA; for MIC: overnight, 37° C., ≥99% inhibition; for MBC: ≥99% killing
Description: (§2) To evaluate their anti-bacterial potency, broth microdilution method as per the CLSI guidelines 1 was used. […] The anti-bacterial potency of the tested agents is quantified using minimum inhibitory concentration (MIC) and minimum bactericidal concentration (MBC). […] To obtain the MBC data, 1X, 2X and 4× MIC of the peptide variants were plated to obtain the number of viable colonies compared to the original inoculum.
(§3) Pseudomonas aeruginosa (ATCC 14213, PA), and methicillin resistant Staphylococcus aureus (BAA1717-USA 300, SA) were obtained from The American Type Culture Collection (ATCC).
(§4) Examination of the potency of modified short peptides against PA and SA strains was performed by using the broth microdilution protocol from the Clinical and Laboratory Standards Institute (CLSI) guidelines (CLSI 2012) as described. Briefly, five freshly plated bacteria colonies were grown in cation adjusted MH2 broth (BD Biosciences) in a shaker incubator at 37° C., 220 RPM. Cells were grown to an optical density (OD600) of ~0.2 measured using a Microplate Spectrophotometer (Molecular Devices Spectra Max Plus). 100 μL of microbial culture containing ~5×10^5 CFU/mL of bacteria in the respective broths were introduced into each well containing 100 μL of peptides and incubated overnight at 37° C. Next, to check the bactericidal effects, 100 μL from each well was transferred and spread on sterile MH2 agar plates. The plates were incubated overnight at 37° C. and the number of colonies forming units (CFU) were calculated the following day. Readings of bacteria grown in media without any treatments were normalized to 100% as media control. For the mixed infection study, three freshly plated bacteria colonies each from PA, SA and ST plates were grown together in cation adjusted MH2 broth and proceeded as described above.

[4] = system: Staphylococcus aureus (SA); assay: Broth microdilution anti-bacterial assay (CLSI), Staphylococcus aureus; assay type: cell-based; details: SA; for MIC: overnight, 37° C., ≥99% inhibition; for MBC: ≥99% killing
Description: as §2, §3, §4

[5] = system: Pseudomonas aeruginosa (PA); assay: Time-kill assay, Pseudomonas aeruginosa; assay type: cell-based
Description: (§5) The bactericidal abilities of the variant peptides are not only effective, but also fast-acting. […] The killing kinetics are detailed in Table 11 below.
(§6) Pseudomonas aeruginosa (PA) and Staphylococcus aureus (SA) strains were grown as per CLSI guidelines. AMPs were added to the bacterial cultures at their 1X MBC concentrations. Upon treatment, the bacterial cultures were enumerated for viable counts immediately within 1 min, 5 min, 15 min, 30 min and 60 min post-treatments.

[6] = system: Staphylococcus aureus (SA); assay: Time-kill assay, Staphylococcus aureus; assay type: cell-based
Description: as §5, §6

[7] = system: human keratinocytes; assay: 2D scratch assay, keratinocyte migration; assay type: cell-based; details: 48 h; E1AM2 3.125-12.5 μM, Q19L 3.125-6.25 μM
Description: Wound healing is directly associated with the migration speed of keratinocytes. The migration speed of human keratinocytes in presence of E1AM2, V8L (SEQ ID NO: 19), and Q19L variants is tested in comparison with pexiganan (SEQ ID NO: 54). Migration speed of human keratinocytes assessed in a 2D scratch assay at D 0 and D 2 timepoints. Decrease in wound area over time was measured by applying an ImageJ plugin ‘Wound Healing Size Tool’ on bright-field images. The change in wound area over the course of 48 hours was used as a measure of the migration speed of keratinocytes. Each value is the mean±SD (n=3). The p-value was calculated using ANOVA for multiple comparisons (Dunnett's multiple comparisons test). **** p<0.0001. *** p<0.001. ** p <0.01. * p<0.05. […] Both peptides healed wound faster within their respective MIC and MBC concentrations. […] SEQ ID NO: 27=Q19L; SEQ ID NO: 2=E1AM2; SEQ ID NO: 19=V8L.
as §1
Wound areas of the human keratinocyte culture were assessed in presence of peptides in a 2D scratch assay at the 0 hour, and 48-hour time points by applying an ImageJ plugin, ‘Wound Healing Size Tool’ on brightfield images. Quantification of wound width was calculated by obtaining the averaged Euclidean distance between each paired pixel at the lateral wound edges. The change in wound area over the course of 48 hours was used as a measure of the migration speed of keratinocytes.
Using the inverted BioTek Lionheart LX Automated Microscope, brightfield images were obtained at 4× magnification to observe the wound area at timepoints 0 (before treatment) and 48 hours-post treatment. Microscopy settings were maintained as focus offset (781.3 μm), illumination (2), integration Time (21) with no gain. To cover the entire well, montage images of four rows by three columns were stitched together by enabling the “image stitching” function and images were saved in tiff-format.

[8] = system: Pseudomonas aeruginosa (PA); assay: Combination of peptide with antibiotics against PA; assay type: cell-based; details: with colistin
Excerpt: In view of the results above, the peptide variants as described herein show synergistic anti-bacterial effects when used in combination with antibiotics.
In some examples, the methods described herein further comprises administering an antibiotic agent to the subject.

[9] = system: bacteria; assay: Comparison of wild-type peptide E1A to V8LQ19L (Table 14)
Excerpt: Active peptide sequences based on ENO3 exerting significant bactericidal antibiofilm properties, and relevant to chronic wound healing are previously disclosed. The previously disclosed antimicrobial peptides (AMPs) are longer (>22-residues) in length, which would be more costly in production.

[10] = at 1X MBC, * indicates killing within seconds

Molecule: OO [H2O2, hydrogen peroxide, reference compound]
- cytotoxicity to HaCaT [1]: significant cytotoxicity
- cytotoxicity to HFF-1 [2]: significant cytotoxicity

Molecule: KKLLKKWLKLSKKALKLAQSL-NH2 [V8L]
- anti-bacterial activity (in words) ([3]; PA and SA): reduction in the minimum inhibitory concentration (MIC) and minimum bactericidal concentration (MBC) values
- MIC [3]: 3.125 µM
- MBC [3]: 3.125 µM
- MIC [4]: 3.125 µM
- MBC [4]: 3.125 µM
- time to kill PA (in words) ([5]; 1X MBC): within minutes
- Time kill PA, >99% killing [5, 10]: 1* min
- time to kill SA (in words) ([6]; 1X MBC): within minutes
- Time kill SA, >99% killing [6, 10]: >30 to 60 min
- migration speed of keratinocytes [7]: maintained keratinocyte migration speed

Molecule: CC(C)C[C@@H](NC(=O)[C@@H](C)NC(=O)[C@@H](CC(C)C)NC(=O)[C@@H](CCCCN)NC(=O)[C@@H](CC(C)C)NC(=O)[C@@H](C)NC(=O)[C@@H](CCCCN)NC(=O)[C@@H](CCCCN)NC(=O)[C@@H](CO)NC(=O)[C@@H](CC(C)C)NC(=O)[C@@H](CCCCN)NC(=O)[C@@H](CC(C)C)NC(=O)[C@@H](Cc1c[nH]c2ccccc12)NC(=O)[C@@H](CCCCN)NC(=O)[C@@H](CCCCN)NC(=O)[C@@H](CC(C)C)NC(=O)[C@@H](CC(C)C)NC(=O)[C@@H](CCCCN)NC(=O)[C@H](N)CCCCN)C(N)=O [E1AM2 D-V8L Q19L C-2-NH2] (H-[dK][dK][dL][dL][dK][dK][dW][dL][dK][dL][dS][dK][dK][dA][dL][dK][dL][dA][dL]-NH2)
- MIC [3]: 1.56 µM (≈ 3.51 µg/mL)
- MBC [3]: 1.56 µM (≈ 3.51 µg/mL)
- MIC [4]: 1.56 µM (≈ 3.51 µg/mL)
- MBC [4]: 1.56 µM (≈ 3.51 µg/mL)
- MBC in combination with colistin [8]: reduced minimum bactericidal concentration (MBC)
- MIC in combination with colistin [8]: reduced minimum inhibitory concentration (MIC)

Molecule: KVNQIGSVTESIQACKLAQSN [E1A, reference compound]
- Cationicity [9]: Non-cationic (cannot disrupt
- Mechanism of killing bacteria [9]: Unknown/non-membrane
- Killing efficacy (in words) ([9]; >99% inhibition or killing, even at 500 μM): Does not achieve >99%
